Laboratory results as given in patent publication US8618286B2, “Benzoxazines, benzothiazines, and related compounds having NOS inhibitory activity” (NeurAxon, Inc., priority 2008, dated 2013).

Assays:
[1] = test system: L5/L6 spinal nerve ligation model of neuropathic pain (Chung model); experiment: Chung L5/L6 spinal nerve ligation model of neuropathic pain; type: in vivo, rat; conditions: rats, L5/L6 SNL
Method: (§1) The L5/L6 spinal nerve was surgically ligated and animals allowed to recover for a period of 7-10 days. During this period animals develop neuropathic pain. The reduction of paw withdrawal latency after an infrared thermal stimulus (post-SNL) was measured following the induction period for comparison with pre-surgery baseline levels (BL). Following drug administration, thermal hyperalgesia was measured at various time points.
as §1, with “tactile thresholds” for “paw withdrawal latency after an infrared thermal stimulus”, “tactile allodynia” for “thermal hyperalgesia”, “points with calibrated von-Frey filaments.” for “points.”
The experimental designs for the Chung Spinal Nerve Ligation SNL Model assay for neuropathic pain are depicted in FIGS. 1 and 2. Nerve ligation injury was performed according to the method described by Kim and Chung (Kim and Chung, Pain 50:355-363, 1992). This technique produces signs of neuropathic dysesthesias, including tactile allodynia, thermal hyperalgesia, and guarding of the affected paw. Rats were anesthetized with halothane, and the vertebrae over the L4 to S2 region were exposed. […]

[2] = target: Nitric oxide synthase (neuronal, human recombinant) nNOS (Homo sapiens (Human), UniProt P29475); experiment: Human nNOS enzyme assay ([3H]-L-arginine to L-citrulline conversion); type: biochemical
Method: nNOS (Human), eNOS (Human) and iNOS (Human) Enzyme Assay
Primary stock solutions of test compounds at a concentration of 6 mM were prepared from the 2 to 5 mg powder. The primary stock solutions of each test compound were prepared freshly in distilled water on the day of study to obtain a final concentration of 6 mM. For determination of IC50 values, 12 test compound concentrations were prepared as 3-fold serial dilutions. Concentration range of test compound utilized for nNOS were 0.001 to 300 μM and for eNOS were 0.003 to 1000 μM. The vehicle of the test compound or inhibitor was used as blank control. For non-specific activity, 100 μM L-NMMA was used. Runs using the IC50 concentration of L-NAME were done in parallel as controls.
All incubations are performed in duplicate
The reaction mixture was prepared on ice by adding the following components with a micropipette to a polypropylene microcentrifuge tube: • 10 μL of test compound, inhibitor or control (vehicle or L-NMMA) solution; • 25 μL of Reaction Buffer {25 mM Tris-HCl, 0.6 μM BH4, 0.2 μM FMN, 0.2 μM FAD}; • 5 μL of 10 mM NADPH solution {1 mM} (freshly prepared in 10 mM Tris-HCl (pH 7.4); • 5 μL of 6 mM CaCl2 {600 W}; • 5 μL of 1 mM Calmodulin {100 W}; and • 5 μL of 0.02 μg/μL nNOS or 0.12 μg/μL eNOS.
The above reaction mixture was pre-incubated at room temperature for 15 mins.
The reaction was started by the addition of the substrate (in 5 μL containing 1 μCi of [^3H]-L-Arginine+2.5 μM of unlabeled L-Arginine) to the reaction mixture. Total reaction volume is 60 μL.
The reaction was mixed using a vortex mixer and incubate the above reaction mixture at 37° C. in an incubator for 30 minutes.
To stop the reaction, 400 μL of ice-cold Stop Buffer was added at the end of the incubation period.
The reaction was then mixed using a vortex mixer, and the reaction samples were transferred to spin cups, which were centrifuged using a microcentrifuge, at 13,000 rpm for 30 sec. at room temperature.
The spin cups were removed from the holder, 450 μL of eluate (containing the unbound L-citrulline) were transferred to scintillation vials. 3 mL of scintillation fluid were added and the radioactivity was quantified in a liquid scintillation counter.
Data was analyzed using a Sigmoidal dose-response (variable slope) curve to determine the IC50 value of the test compound. Y=Bottom+(Top−Bottom)/(1+10^((Log IC50−X)*Hill Slope))

- Selectivity eNOS/nNOS ([2]; ratio of human eNOS IC50 to human nNOS IC50): 531
- IC50 ([2]; recombinant human nNOS): 60 nM
SMILES: CNCCN1CCSc2cc(NC(=N)c3cccs3)ccc21 [Compound 8, N-(4-(2-(methylamino)ethyl)-3,4-dihydro-2H-benzo[b][1,4]thiazin-7-yl)thiophene-2-carboximidamide]
- reversal of tactile allodynia ([1]; i.p. 30 mg/kg, von Frey filaments): reversal of tactile allodynia
- reversal of thermal hyperalgesia ([1]; i.p., text: e.g. 3 mg/kg, FIG. 3 legend: 30 mg/kg): clear effect
